From patent publication US12497365B2, “4-pyridinyl formamide compound or derivative thereof, preparation method therefor, herbicidal composition and use thereof” (Qingdao Kingagroot Chemical Compound Co., Ltd., priority 2019, dated 2025) come the findings set out here.

Each structure is given as a SMILES string.

Common to all, as to assay: Weeding effect in post-emergence stage
Format in all cases: in vivo
What all share (conditions): active ingredient 2000 g/ha, 3 weeks after application, fresh weight control rate

For one experiment, the system named is Chenopodium album. An outline of the steps: (§1)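 Seeds were covered with 0.5-2 cm soil and raised in a greenhouse for 2 weeks. At the 2-3 leaf stage, compound formulations (acetone, Tween 80, 1.5 liter/ha methyl oleate EC, water) were spray-tower applied at 2000-125 g/ha. After 3 further weeks, fresh weight control was graded.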
The test system of a further experiment is Descurainia sophia. An outline of the steps: as §1
Experiment [1] relates to Amaranthus retroflexus L. An outline of the steps: as §1
In the next experiment the test system is Abutilon theophrasti. In a few lines: as §1

Consider `Cn1nnnc1NC(=O)c1ccnc(-c2ccccc2[N+](=O)[O-])c1Cl` [Compound 1-38], for which the “Weeding effect, activity level (growth control rate), Chenopodium album” value (“Weeding effect … Chenopodium album” below) in the experiment with Chenopodium album was 5 (Level 5: growth control rate is above 85%). Further, the “Weeding effect, activity level (growth control rate), Descurainia sophia” value (“Weeding effect … Descurainia sophia” below) in the experiment with Descurainia sophia is listed as 5 (Level 5: growth control rate is above 85%). Besides, in experiment [1], the “Weeding effect, activity level (growth control rate), Amaranthus retroflexus L.” value (“Weeding effect … Amaranthus retroflexus L.” for short) is recorded as 5 (Level 5: growth control rate is above 85%). The “Weeding effect, activity level (growth control rate), Abutilon theophrasti” value (“Weeding effect … Abutilon theophrasti” for short) in the experiment on Abutilon theophrasti is 5 (Level 5: growth control rate is above 85%).

With `Cn1nnnc1NC(=O)c1ccnc(-c2ccc(C(=O)O)cc2)c1Cl` [Compound 1-39], the “Weeding effect … Chenopodium album” value in the experiment on Chenopodium album is listed as 5 (Level 5: growth control rate is above 85%). Also, the “Weeding effect … Descurainia sophia” value in the experiment on Descurainia sophia is reported as 5 (Level 5: growth control rate is above 85%). The “Weeding effect … Amaranthus retroflexus L.” value in experiment [1] is recorded as 5 (Level 5: growth control rate is above 85%). For the same compound, in the experiment on Abutilon theophrasti, the “Weeding effect … Abutilon theophrasti” value is 5 (Level 5: growth control rate is above 85%).

Take `COC(=O)c1ccc(-c2nccc(C(=O)Nc3nnnn3C)c2Cl)cc1` [Compound 1-40]: the “Weeding effect … Chenopodium album” value in the experiment on Chenopodium album was 5 (Level 5: growth control rate is above 85%). Moreover, the “Weeding effect … Descurainia sophia” value in the experiment with Descurainia sophia was 5 (Level 5: growth control rate is above 85%). Also, the “Weeding effect … Amaranthus retroflexus L.” value in experiment [1] was 5 (Level 5: growth control rate is above 85%). The “Weeding effect … Abutilon theophrasti” value in the experiment with Abutilon theophrasti is 5 (Level 5: growth control rate is above 85%).

Turning to `Cn1nnnc1NC(=O)c1ccnc(-c2ccc(C(=O)OC(C)(C)C)cc2)c1Cl` [Compound 1-41], the “Weeding effect … Chenopodium album” value in the experiment with Chenopodium album is listed as 5 (Level 5: growth control rate is above 85%). Besides, the “Weeding effect … Descurainia sophia” value with Descurainia sophia was 5 (Level 5: growth control rate is above 85%). Moreover, the “Weeding effect … Amaranthus retroflexus L.” value in experiment [1] is listed as 5 (Level 5: growth control rate is above 85%). In the experiment with Abutilon theophrasti, the “Weeding effect … Abutilon theophrasti” value is 5 (Level 5: growth control rate is above 85%).

In the case of `CSc1ccccc1-c1nccc(C(=O)Nc2nnnn2C)c1Cl` [Compound 1-42], in the experiment with Chenopodium album, the “Weeding effect … Chenopodium album” value is given as 5 (Level 5: growth control rate is above 85%). The “Weeding effect … Descurainia sophia” value in the experiment with Descurainia sophia is 5 (Level 5: growth control rate is above 85%). For the same compound, in experiment [1], the “Weeding effect … Amaranthus retroflexus L.” value is recorded as 5 (Level 5: growth control rate is above 85%). The “Weeding effect … Abutilon theophrasti” value with Abutilon theophrasti was 5 (Level 5: growth control rate is above 85%).

Turning to `CC(C)Sc1ccc(-c2nccc(C(=O)Nc3nnnn3C)c2Cl)cc1` [Compound 1-43], the “Weeding effect … Chenopodium album” value in the experiment on Chenopodium album was 5 (Level 5: growth control rate is above 85%). Moreover, the “Weeding effect … Descurainia sophia” value with Descurainia sophia is on record as 5 (Level 5: growth control rate is above 85%). Besides, in experiment [1], the “Weeding effect … Amaranthus retroflexus L.” value is 5 (Level 5: growth control rate is above 85%). Further, the “Weeding effect … Abutilon theophrasti” value in the experiment on Abutilon theophrasti is 5 (Level 5: growth control rate is above 85%).

Regarding `Cn1nnnc1NC(=O)c1ccnc(-c2cccc(S(C)(=O)=O)c2)c1Cl` [Compound 1-44], the “Weeding effect … Chenopodium album” value in the experiment on Chenopodium album was 5 (Level 5: growth control rate is above 85%). Moreover, in the experiment on Descurainia sophia, the “Weeding effect … Descurainia sophia” value was 5 (Level 5: growth control rate is above 85%). Besides, the “Weeding effect … Amaranthus retroflexus L.” value in experiment [1] was 5 (Level 5: growth control rate is above 85%). The “Weeding effect … Abutilon theophrasti” value in the experiment on Abutilon theophrasti is reported as 5 (Level 5: growth control rate is above 85%).

Regarding `Cn1nnnc1NC(=O)c1ccnc(-c2ccc(S(C)(=O)=O)cc2)c1Cl` [Compound 1-45], the “Weeding effect … Chenopodium album” value in the experiment with Chenopodium album is given as 5 (Level 5: growth control rate is above 85%). The “Weeding effect … Descurainia sophia” value in the experiment with Descurainia sophia is reported as 5 (Level 5: growth control rate is above 85%). Besides, the “Weeding effect … Amaranthus retroflexus L.” value in experiment [1] is on record as 5 (Level 5: growth control rate is above 85%). Further, in the experiment with Abutilon theophrasti, the “Weeding effect … Abutilon theophrasti” value was 5 (Level 5: growth control rate is above 85%).

In the case of `Cn1nnnc1NC(=O)c1ccnc(-c2ccc(S(=O)(=O)N3CCOCC3)cc2)c1Cl` [Compound 1-46], in the experiment with Chenopodium album, the “Weeding effect … Chenopodium album” value is recorded as 5 (Level 5: growth control rate is above 85%). Moreover, in the experiment with Descurainia sophia, the “Weeding effect … Descurainia sophia” value was 5 (Level 5: growth control rate is above 85%). In addition, the “Weeding effect … Amaranthus retroflexus L.” value in experiment [1] is reported as 5 (Level 5: growth control rate is above 85%). In the experiment on Abutilon theophrasti, the “Weeding effect … Abutilon theophrasti” value is reported as 5 (Level 5: growth control rate is above 85%).

For the compound `CC(=O)Nc1ccc(-c2nccc(C(=O)Nc3nnnn3C)c2Cl)cc1` [Compound 1-47], the “Weeding effect … Chenopodium album” value in the experiment on Chenopodium album was 5 (Level 5: growth control rate is above 85%). Besides, the “Weeding effect … Descurainia sophia” value in the experiment with Descurainia sophia is reported as 5 (Level 5: growth control rate is above 85%). In experiment [1], the “Weeding effect … Amaranthus retroflexus L.” value is given as 5 (Level 5: growth control rate is above 85%). The “Weeding effect … Abutilon theophrasti” value in the experiment with Abutilon theophrasti was 5 (Level 5: growth control rate is above 85%).

Regarding `C=CC(=O)Nc1cccc(-c2nccc(C(=O)Nc3nnnn3C)c2Cl)c1` [Compound 1-48], the “Weeding effect … Chenopodium album” value with Chenopodium album is 5 (Level 5: growth control rate is above 85%). In the experiment with Descurainia sophia, the “Weeding effect … Descurainia sophia” value was 5 (Level 5: growth control rate is above 85%). Moreover, the “Weeding effect … Amaranthus retroflexus L.” value in experiment [1] is reported as 5 (Level 5: growth control rate is above 85%). Further, the “Weeding effect … Abutilon theophrasti” value with Abutilon theophrasti was 5 (Level 5: growth control rate is above 85%).

Consider `Cn1nnnc1NC(=O)c1ccnc(-c2cccc(C#N)c2)c1Cl` [Compound 1-49], for which the “Weeding effect … Chenopodium album” value in the experiment on Chenopodium album is on record as 5 (Level 5: growth control rate is above 85%). For the same compound, in the experiment with Descurainia sophia, the “Weeding effect … Descurainia sophia” value is on record as 5 (Level 5: growth control rate is above 85%). The “Weeding effect … Amaranthus retroflexus L.” value in experiment [1] is recorded as 5 (Level 5: growth control rate is above 85%). Also, the “Weeding effect … Abutilon theophrasti” value with Abutilon theophrasti is 5 (Level 5: growth control rate is above 85%).

Turning to `Cn1nnnc1NC(=O)c1ccnc(-c2ccc(C#N)cc2)c1Cl` [Compound 1-50], the “Weeding effect … Chenopodium album” value with Chenopodium album is on record as 5 (Level 5: growth control rate is above 85%). Further, the “Weeding effect … Descurainia sophia” value with Descurainia sophia is reported as 5 (Level 5: growth control rate is above 85%). For the same compound, the “Weeding effect … Amaranthus retroflexus L.” value in experiment [1] is 5 (Level 5: growth control rate is above 85%). Further, the “Weeding effect … Abutilon theophrasti” value in the experiment on Abutilon theophrasti is 5 (Level 5: growth control rate is above 85%).

Regarding `Cn1nnnc1NC(=O)c1ccnc(-c2ccc(OC3CCCCO3)cc2)c1Cl` (stereo not shown) [Compound 1-51], in the experiment with Chenopodium album, the “Weeding effect … Chenopodium album” value is on record as 5 (Level 5: growth control rate is above 85%). In the experiment with Descurainia sophia, the “Weeding effect … Descurainia sophia” value is 5 (Level 5: growth control rate is above 85%). Further, the “Weeding effect … Amaranthus retroflexus L.” value in experiment [1] is reported as 5 (Level 5: growth control rate is above 85%). Also, the “Weeding effect … Abutilon theophrasti” value with Abutilon theophrasti is listed as 5 (Level 5: growth control rate is above 85%).

For `Cn1nnnc1NC(=O)c1ccnc(-c2ccccc2-c2ccccc2)c1Cl` [Compound 1-52], the “Weeding effect … Chenopodium album” value in the experiment on Chenopodium album is 5 (Level 5: growth control rate is above 85%). Further, in the experiment on Descurainia sophia, the “Weeding effect … Descurainia sophia” value is on record as 5 (Level 5: growth control rate is above 85%). Also, the “Weeding effect … Amaranthus retroflexus L.” value in experiment [1] is recorded as 5 (Level 5: growth control rate is above 85%). In the experiment with Abutilon theophrasti, the “Weeding effect … Abutilon theophrasti” value is listed as 5 (Level 5: growth control rate is above 85%).

On to `Cn1nnnc1NC(=O)c1ccnc(-c2ccc(-c3ccccc3)cc2)c1Cl` [Compound 1-53], for which, in the experiment with Chenopodium album, the “Weeding effect … Chenopodium album” value was 5 (Level 5: growth control rate is above 85%). Also, the “Weeding effect … Descurainia sophia” value in the experiment with Descurainia sophia was 5 (Level 5: growth control rate is above 85%). Further, the “Weeding effect … Amaranthus retroflexus L.” value in experiment [1] is reported as 5 (Level 5: growth control rate is above 85%). Moreover, the “Weeding effect … Abutilon theophrasti” value in the experiment on Abutilon theophrasti is 5 (Level 5: growth control rate is above 85%).

In the case of `CCc1ccc(-c2ccc(-c3nccc(C(=O)Nc4nnnn4C)c3Cl)cc2)cc1` [Compound 1-54], the “Weeding effect … Chenopodium album” value in the experiment with Chenopodium album is 5 (Level 5: growth control rate is above 85%). In addition, the “Weeding effect … Descurainia sophia” value with Descurainia sophia is given as 5 (Level 5: growth control rate is above 85%). Also, the “Weeding effect … Amaranthus retroflexus L.” value in experiment [1] is listed as 5 (Level 5: growth control rate is above 85%). Moreover, the “Weeding effect … Abutilon theophrasti” value with Abutilon theophrasti is 5 (Level 5: growth control rate is above 85%).

Regarding `Cn1nnnc1NC(=O)c1ccnc(-c2cccc(OCc3ccccc3)c2)c1Cl` [Compound 1-56], in the experiment on Chenopodium album, the “Weeding effect … Chenopodium album” value is on record as 5 (Level 5: growth control rate is above 85%). In the experiment on Descurainia sophia, the “Weeding effect … Descurainia sophia” value is reported as 5 (Level 5: growth control rate is above 85%). In addition, the “Weeding effect … Amaranthus retroflexus L.” value in experiment [1] is 5 (Level 5: growth control rate is above 85%). Also, in the experiment on Abutilon theophrasti, the “Weeding effect … Abutilon theophrasti” value is recorded as 5 (Level 5: growth control rate is above 85%).

On to `Cn1nnnc1NC(=O)c1ccnc(-c2ccccc2Oc2ccccc2)c1Cl` [Compound 1-57], for which the “Weeding effect … Chenopodium album” value in the experiment on Chenopodium album is listed as 5 (Level 5: growth control rate is above 85%). Also, in the experiment on Descurainia sophia, the “Weeding effect … Descurainia sophia” value is recorded as 5 (Level 5: growth control rate is above 85%). Also, the “Weeding effect … Amaranthus retroflexus L.” value in experiment [1] is recorded as 5 (Level 5: growth control rate is above 85%). For the same compound, in the experiment on Abutilon theophrasti, the “Weeding effect … Abutilon theophrasti” value was 5 (Level 5: growth control rate is above 85%).
